Assay results reported in ChEMBL document CHEMBL3045610, “Pyridoquinolones containing azetidinones: synthesis and their biological evaluation” (2012).
Converted amounts (≈) assume the structure as drawn.

Assays:
Type in all cases: functional
Aspergillus clavatus = assay: Antifungal activity against Aspergillus clavatus by broth dilution method
Aspergillus niger = assay: Antifungal activity against Aspergillus niger by broth dilution method
Candida albicans = assay: Antifungal activity against Candida albicans by broth dilution method
Streptococcus pyogenes = assay: Antibacterial activity against Streptococcus pyogenes by broth dilution method
Staphylococcus aureus = assay: Antibacterial activity against Staphylococcus aureus by broth dilution method
Pseudomonas aeruginosa = assay: Antibacterial activity against Pseudomonas aeruginosa by broth dilution method
Escherichia coli = assay: Antibacterial activity against Escherichia coli by broth dilution method
[1] = test system: Mycobacterium tuberculosis; assay: Antimicrobial activity against Mycobacterium tuberculosis H37Rv by broth dilution method

| Compound | MIC (Aspergillus clavatus) [µg/mL] | MIC (Aspergillus niger) [µg/mL] | MIC (Candida albicans) [µg/mL] | MIC (Streptococcus pyogenes) [µg/mL] | MIC (Staphylococcus aureus) [µg/mL] | MIC (Pseudomonas aeruginosa) [µg/mL] | MIC (Escherichia coli) [µg/mL] | MIC [1] [µg/mL] |
| --- | --- | --- | --- | --- | --- | --- | --- | --- |
| Cc1cc(Cl)nc2ccc3c(=O)c(C(=O)N/N=C/c4ccc(Cl)cc4)c[nH]c3c12 | 250 (≈ 588 µM) | 250 (≈ 588 µM) | 500 (≈ 1180 µM) | 250 (≈ 588 µM) | 250 (≈ 588 µM) | 1000 (≈ 2350 µM) | 500 (≈ 1180 µM) | – |
| COc1cc(C2C(Cl)C(=O)N2NC(=O)c2c[nH]c3c(ccc4nc(Cl)cc(C)c43)c2=O)ccc1O (configuration not stated) | 500 (≈ 974 µM) | 500 (≈ 974 µM) | 1000 (≈ 1950 µM) | 1000 (≈ 1950 µM) | 1000 (≈ 1950 µM) | 500 (≈ 974 µM) | 250 (≈ 487 µM) | – |
| COC1=CC(=O)C[C@@H](C)[C@]12Oc1c(Cl)c(OC)cc(OC)c1C2=O [GRISEOFULVIN] | 100 (≈ 283 µM) | 100 (≈ 283 µM) | 500 (≈ 1420 µM) | – | – | – | – | – |
| Cc1cc(Cl)nc2ccc3c(=O)c(C(=O)N/N=C/c4ccccc4)c[nH]c3c12 | > 1000 | > 1000 | 250 (≈ 640 µM) | 250 (≈ 640 µM) | 200 (≈ 512 µM) | 250 (≈ 640 µM) | 250 (≈ 640 µM) | – |
| Cc1ccc(/C=N/NC(=O)c2c[nH]c3c(ccc4nc(Cl)cc(C)c43)c2=O)cc1 | 500 (≈ 1240 µM) | 500 (≈ 1240 µM) | 250 (≈ 618 µM) | 250 (≈ 618 µM) | 250 (≈ 618 µM) | 250 (≈ 618 µM) | 200 (≈ 494 µM) | – |
| Cc1cc(Cl)nc2ccc3c(=O)c(C(=O)NN4C(=O)C(Cl)C4c4ccccc4Cl)c[nH]c3c12 (configuration not stated) | 250 (≈ 498 µM) | 250 (≈ 498 µM) | 100 (≈ 199 µM) | 200 (≈ 399 µM) | 200 (≈ 399 µM) | 250 (≈ 498 µM) | 200 (≈ 399 µM) | – |
| Cc1cc(Cl)nc2ccc3c(=O)c(C(=O)N/N=C/c4cccc([N+](=O)[O-])c4O)c[nH]c3c12 | 500 (≈ 1110 µM) | 500 (≈ 1110 µM) | 200 (≈ 443 µM) | 500 (≈ 1110 µM) | 500 (≈ 1110 µM) | 200 (≈ 443 µM) | 150 (≈ 332 µM) | 62.5 (≈ 138 µM) |
| CCOC(=O)c1c[nH]c2c(ccc3nc(Cl)cc(C)c32)c1=O | 1000 (≈ 3160 µM) | 1000 (≈ 3160 µM) | 200 (≈ 631 µM) | 100 (≈ 316 µM) | 150 (≈ 474 µM) | 250 (≈ 789 µM) | 250 (≈ 789 µM) | 500 (≈ 1580 µM) |
| O=C(O)c1cn(C2CC2)c2cc(N3CCNCC3)c(F)cc2c1=O [CIPROFLOXACIN] | – | – | – | 50 (≈ 151 µM) | 50 (≈ 151 µM) | – | 25 (≈ 75.4 µM) | – |
| Cc1cc(Cl)nc2ccc3c(=O)c(C(=O)N/N=C/c4ccccc4O)c[nH]c3c12 | 500 (≈ 1230 µM) | 500 (≈ 1230 µM) | 100 (≈ 246 µM) | 200 (≈ 492 µM) | 100 (≈ 246 µM) | 250 (≈ 615 µM) | 250 (≈ 615 µM) | 200 (≈ 492 µM) |
| NYSTATIN | 100 | 100 | 100 | – | – | – | – | – |
| COc1ccc(/C=N/NC(=O)c2c[nH]c3c(ccc4nc(Cl)cc(C)c43)c2=O)cc1 | 500 (≈ 1190 µM) | 500 (≈ 1190 µM) | 500 (≈ 1190 µM) | 500 (≈ 1190 µM) | 500 (≈ 1190 µM) | 500 (≈ 1190 µM) | 250 (≈ 594 µM) | – |
| Cc1cc(Cl)nc2ccc3c(=O)c(C(=O)NN4C(=O)C(Cl)C4c4ccccc4O)c[nH]c3c12 (configuration not stated) | 1000 (≈ 2070 µM) | 1000 (≈ 2070 µM) | 500 (≈ 1030 µM) | 500 (≈ 1030 µM) | 500 (≈ 1030 µM) | 200 (≈ 414 µM) | 100 (≈ 207 µM) | 500 (≈ 1030 µM) |
| COc1ccc(C2C(Cl)C(=O)N2NC(=O)c2c[nH]c3c(ccc4nc(Cl)cc(C)c43)c2=O)cc1 (configuration not stated) | > 1000 | > 1000 | 500 (≈ 1010 µM) | 500 (≈ 1010 µM) | 500 (≈ 1010 µM) | 250 (≈ 503 µM) | 250 (≈ 503 µM) | – |
| CC1(C)S[C@@H]2[C@H](NC(=O)[C@H](N)c3ccccc3)C(=O)N2[C@H]1C(=O)O [AMPICILLIN] | – | – | – | 100 (≈ 286 µM) | 250 (≈ 715 µM) | 100 (≈ 286 µM) | 100 (≈ 286 µM) | – |
| Cc1cc(Cl)nc2ccc3c(=O)c(C(=O)NN4C(=O)C(Cl)C4c4cc([N+](=O)[O-])ccc4O)c[nH]c3c12 (configuration not stated) | 500 (≈ 946 µM) | 500 (≈ 946 µM) | 250 (≈ 473 µM) | 500 (≈ 946 µM) | 500 (≈ 946 µM) | 500 (≈ 946 µM) | 250 (≈ 473 µM) | – |
| CCn1cc(C(=O)O)c(=O)c2cc(F)c(N3CCNCC3)cc21 [NORFLOXACIN] | – | – | – | 10 (≈ 31.3 µM) | 10 (≈ 31.3 µM) | 10 (≈ 31.3 µM) | 10 (≈ 31.3 µM) | – |
| Cc1cc(Cl)nc2ccc3c(=O)c(C(=O)NN)c[nH]c3c12 | > 1000 | > 1000 | 500 (≈ 1650 µM) | 200 (≈ 661 µM) | 250 (≈ 826 µM) | 200 (≈ 661 µM) | 100 (≈ 330 µM) | 200 (≈ 661 µM) |
| COc1ccccc1/C=N/NC(=O)c1c[nH]c2c(ccc3nc(Cl)cc(C)c32)c1=O | 1000 (≈ 2380 µM) | 1000 (≈ 2380 µM) | 500 (≈ 1190 µM) | 250 (≈ 594 µM) | 250 (≈ 594 µM) | 250 (≈ 594 µM) | 100 (≈ 238 µM) | 250 (≈ 594 µM) |
| COc1ccccc1C1C(Cl)C(=O)N1NC(=O)c1c[nH]c2c(ccc3nc(Cl)cc(C)c32)c1=O (configuration not stated) | > 1000 | > 1000 | 250 (≈ 503 µM) | 500 (≈ 1010 µM) | 250 (≈ 503 µM) | 1000 (≈ 2010 µM) | 500 (≈ 1010 µM) | – |
| COc1cc(/C=N/NC(=O)c2c[nH]c3c(ccc4nc(Cl)cc(C)c43)c2=O)ccc1O | 1000 (≈ 2290 µM) | 1000 (≈ 2290 µM) | 250 (≈ 572 µM) | 200 (≈ 458 µM) | 100 (≈ 229 µM) | 500 (≈ 1140 µM) | 500 (≈ 1140 µM) | 500 (≈ 1140 µM) |
| Cc1cc(Cl)nc2ccc3c(=O)c(C(=O)N/N=C/c4ccccc4Cl)c[nH]c3c12 | > 1000 | 500 (≈ 1180 µM) | 250 (≈ 588 µM) | 200 (≈ 470 µM) | 100 (≈ 235 µM) | 500 (≈ 1180 µM) | 500 (≈ 1180 µM) | – |
| O=C(N[C@H](CO)[C@H](O)c1ccc([N+](=O)[O-])cc1)C(Cl)Cl [CHLORAMPHENICOL] | – | – | – | 50 (≈ 155 µM) | 50 (≈ 155 µM) | 50 (≈ 155 µM) | 50 (≈ 155 µM) | – |
| NNC(=O)c1ccncc1 [ISONIAZID] | – | – | – | – | – | – | – | 0.2 (≈ 1.46 µM) |
| Cc1ccc(C2C(Cl)C(=O)N2NC(=O)c2c[nH]c3c(ccc4nc(Cl)cc(C)c43)c2=O)cc1 (configuration not stated) | > 1000 | > 1000 | 200 (≈ 416 µM) | 250 (≈ 519 µM) | 250 (≈ 519 µM) | 250 (≈ 519 µM) | 250 (≈ 519 µM) | – |
| Cc1cc(Cl)nc2ccc3c(=O)c(C(=O)N/N=C/c4cc([N+](=O)[O-])ccc4O)c[nH]c3c12 | 1000 (≈ 2210 µM) | 1000 (≈ 2210 µM) | 200 (≈ 443 µM) | 250 (≈ 553 µM) | 200 (≈ 443 µM) | 100 (≈ 221 µM) | 62.5 (≈ 138 µM) | 500 (≈ 1110 µM) |
| Cc1cc(Cl)nc2ccc3c(=O)c(C(=O)NN4C(=O)C(Cl)C4c4ccc(Cl)cc4)c[nH]c3c12 (configuration not stated) | 500 (≈ 996 µM) | 500 (≈ 996 µM) | 200 (≈ 399 µM) | 500 (≈ 996 µM) | 500 (≈ 996 µM) | 100 (≈ 199 µM) | 100 (≈ 199 µM) | 100 (≈ 199 µM) |
| Cc1cc(Cl)nc2ccc3c(=O)c(C(=O)NN4C(=O)C(Cl)C4c4ccccc4)c[nH]c3c12 (configuration not stated) | > 1000 | > 1000 | 500 (≈ 1070 µM) | 250 (≈ 535 µM) | 250 (≈ 535 µM) | 250 (≈ 535 µM) | 100 (≈ 214 µM) | 250 (≈ 535 µM) |
| Cc1cc(Cl)nc2ccc3c(=O)c(C(=O)NN4C(=O)C(Cl)C4c4cccc([N+](=O)[O-])c4O)c[nH]c3c12 (configuration not stated) | > 1000 | > 1000 | 500 (≈ 946 µM) | 500 (≈ 946 µM) | 500 (≈ 946 µM) | 200 (≈ 379 µM) | 62.5 (≈ 118 µM) | 200 (≈ 379 µM) |
